Test results published in patent US7598244B2, “[1,2,4]triazolo[1,5,a]pyrimidin-2-ylurea derivative and use thereof” (Nippon Kayaku Kabushiki Kaisha, priority 2003, dated 2009).

Columns and labels:
BALB/c mice = assay: Effect on mouse delayed-type hypersensitivity reaction (DTH reaction), swelling of the sole; type: in vivo; settings: Oral
Protocol: Effect on Mouse Delayed-Type Hypersensitivity Reaction (DTH Reaction)
1.0×10^5 sheep erythrocytes (Nippon Seibutsu Zairyo Center, Co., Ltd.) were administered to each of BALB/c mice (Charles River Japan, Inc.; female; 8-week-old) by intravenous injection for sensitization. From the day of administration of the sheep erythrocytes, a test compound was administered to the mouse. As a control, a 0.5% carboxymethyl cellulose (CMC)-Na solution and a normal saline solution used as solvents were administered to the same type of mouse via oral administration or intraperitoneal administration. Five days after the antigen sensitization, 1.0×10^8 sheep erythrocytes were subcutaneously injected into the sole of the mouse. 24 hours later, the thickness of the sole was measured. The value obtained by subtracting the mean value of the thicknesses of the soles of mice, to which a normal saline solution had been administered instead of the sheep erythrocytes, from the above measurement value, was defined as swelling of the sole generated as a result of the DTH reaction. The inhibition rate of the swelling of the sole caused by the DTH reaction was calculated using the following formula (5). The amount of the test compound necessary for inhibition of 50% (ED50 value) was obtained as the activity of the test compound to inhibit the DTH reaction. It is to be noted that cyclosporin A was used as a positive control.
[formula] • Eexp: Swelling of sole of mouse to which test compound was administered • Cexp: Swelling of sole of mouse to which solvent was administered

CD80 = assay: Expression of antigen-presenting and costimulatory molecules of human peripheral blood-derived dendritic cells: CD80; type: cell-based
Protocol: (§1) Action on Expression of Antigen-Presenting Molecules and Costimulatory Molecules of Human Peripheral Blood-Derived Dendritic Cells
(§2) The dendritic cells obtained by the same method as in Test Example 2 were suspended in RPMI 1640 comprising 10% FCS containing 500 U/ml GM-CSF, 50 ng/ml IL-4, and 100 U/ml human recombinant tumor necrosis factor (2.5×10^6 cells/ml). Thereafter, the suspension was inoculated into a 6-well plate at an amount of 2.0 ml/well, and the test compound was then added thereto. The mixture was cultured at 37° C. for 3 days in an incubator containing 5% carbon dioxide. Thereafter, the suspended cells were recovered. The cells were then stained with fluoroisothiocyanate-labeled mouse monoclonal antibodies reacting with MHC class I (Bechman Coulter), CD1a (Immunotech), CD40 (Pharmingen), CD80 (Pharmingen), and CD83 (Immunotech). Thereafter, mean fluorescence intensity and the ratio of positive cells were measured by flow cytometry. The expression level was calculated by the formula “the mean fluorescence intensity x the ratio of positive cells,” and the inhibition rate of the surface antigen expression level of dendritic cells was then obtained by the following formula (8).
(§3) [formula] • Eexp: Expression level of surface antigens of dendritic cells cultured in the presence of test compound • Cexp: Expression level of surface antigens of dendritic cells cultured in the absence of test compound

CD83 = assay: Expression of antigen-presenting and costimulatory molecules of human peripheral blood-derived dendritic cells: CD83; type: cell-based
Protocol: as §1, §2, §3

MHC class I = assay: Expression of antigen-presenting and costimulatory molecules of human peripheral blood-derived dendritic cells: MHC class I; type: cell-based
Protocol: as §1, §2, §3

MHC class II = assay: Expression of antigen-presenting and costimulatory molecules of human peripheral blood-derived dendritic cells: MHC class II; type: cell-based

## CC(C)NC(=O)Nc1nc2nccc(-c3cccs3)n2n1 [Example 029, 1-isopropyl-3-(7-thiophen-2-yl[1,2,4]triazolo[1,5-a]pyrimidin-2-yl)urea]
BALB/c mice; administration period 7 days, 50 mg/kg/single administration
  Inhibition rate (%) of swelling of the sole: 37.0%
BALB/c mice; administration period 7 days, 100 mg/kg/single administration
  Inhibition rate (%) of swelling of the sole: 49.5%
BALB/c mice; administration period 8 days, 50 × 2 (50 mg/kg, twice a day)
  Inhibition rate (%) of swelling of the sole: 80.0%
CD80; Analyte 1, 3 days
  Expression inhibition rate by test compound (%), CD80: 83.8%
CD80; Analyte 2, 3 days
  Expression inhibition rate by test compound (%), CD80: 12.1%
CD80; Analyte 3, 3 days
  Expression inhibition rate by test compound (%), CD80: 26.8%
CD83; Analyte 1, 3 days
  Expression inhibition rate by test compound (%), CD83: 62.6%
CD83; Analyte 2, 3 days
  Expression inhibition rate by test compound (%), CD83: 88.6%
CD83; Analyte 3, 3 days
  Expression inhibition rate by test compound (%), CD83: 42.7%
MHC class I; Analyte 1, 3 days
  Expression inhibition rate by test compound (%), MHC class I: 72.3%
MHC class I; Analyte 2, 3 days
  Expression inhibition rate by test compound (%), MHC class I: 63.9%
MHC class I; Analyte 3, 3 days
  Expression inhibition rate by test compound (%), MHC class I: 72.6%
MHC class II; Analyte 1, 3 days
  Expression inhibition rate by test compound (%), MHC class II: 65.6%
MHC class II; Analyte 2, 3 days
  Expression inhibition rate by test compound (%), MHC class II: 93.3%
MHC class II; Analyte 3, 3 days
  Expression inhibition rate by test compound (%), MHC class II: 50.2%
